# Laboratory results published in US10322098B2, “Composition for use in the treatment of intervertebral disc-related pain” (STAYBLE THERAPEUTICS AB, priority 2014, dated 2019).
# Legend:
# [1] = tested on: disc space of the L3-4 intervertebral disc; assay: Dimension of the disc space after local injection into the nucleus pulposus in a pig; format: in vivo; conditions: injected L3-4 disc compared with non-injected L2-3 and L4-5; FIG. 7
# Experimental: 110. performing a cross-section of the discs and measuring the length (anterio-posterior direction) and the width (bilateral direction) of the disc space. Two pigs were anesthetized and placed on their right side. Access to the L4-5 intervertebral disc was obtained through a lateral incision between the lowest rib and the iliac crest on the left side of each pig. Thereafter, the L3-4 intervertebral disc was incised with a scalpel. […] The composition was injected in a single step at a single occasion. The intervertebral discs (L2-3, L3-4, L4-5) were cross-sectioned and the length of the disc space (anterio-posterior direction) and the width (bilateral direction) of the disc space were measured by calipers. In FIGS. 5 and 6, an intervertebral disc is schematically shown in cross-section. The intervertebral disc comprises the annulus fibrosus 10, and a disc space defined by the annulus fibrosus and comprising the nucleus pulposus 11.
# [2] = Tolerability of intradiscal injection in pigs (behaviour, injection site by the naked eye); format: in vivo, pig; conditions: two pigs
# Experimental: Two pigs were anesthetized and placed on their right side. Access to the L4-5 intervertebral disc was obtained through a lateral incision between the lowest rib and the iliac crest on the left side of each pig. Thereafter, the L3-4 intervertebral disc was incised with a scalpel.
# The composition was injected in a single step at a single occasion.
# At harvest, the pigs were killed.
# The injection site was observed by the naked eye. […] The segment of the vertebral column extending from the lumbar vertebra L2 to the sacral vertebra S1 was removed. The facet joints were removed, thus allowing full flexibility of the discs with no restraints from other structures.
compound,measurement,setting,value
CC(O)C(=O)O (stereo not drawn) [lactic acid],Observation of the cross-sectioned disc space by the naked eye,[1],newly formed connective tissue in the disc space
same,Adverse reaction such as decreased mobility or vocalization,"[2]; 0.2 mL of 1.34 mol/L into L3-4 nucleus pulposus, period of seven days until harvest",no adverse reaction
same,"Adverse reaction at the injection site, such as bleedings, inflammation or necrosis","[2]; observed by the naked eye at harvest, seven days",No adverse reaction
